Where two headings read alike, the source gives them in different places.
How the values were obtained:
Thoracic aortic rings = assay: Alternative thoracic aortic rings assay (Example 5; original resting tension as 100% inhibition); conditions: rat thoracic aortic rings contracted with phenylephrine; for Aortic Ring Percent Relaxation at 1 μM: compound at 1 μM; for Aortic Ring Percent Relaxation at 3 μM: compound at 3 μM; for Aortic Ring Percent Relaxation at 10 μM: compound at 10 μM; for EC50: read-out: Aortic Ring EC50
Protocol: Thoracic aortic rings were dissected from anesthetized (isoflurane) male Sprague-Dawley rats weighing 275-299 g. Tissues were immediately transferred to ice-cold Krebs-Henseleit solution, which had been aerated with 95% 02 and 5% CO2 for 30 minutes. Following removal of connective tissue, aortic sections were cut into 4 rings (˜2 mm each) and suspended on 2 L-shaped hooks, with one hook fixed at the bottom of the tissue bath (Schuler Organ Bath, Harvard Apparatus) and the other connected to a force transducer (F30 Force Transducer, Harvard Apparatus). Baths contained Krebs Henseleit solution (10 mL) heated to 37° C. and aerated with 95% 02 and 5% CO2. Rings were brought to an initial tension of 0.3-0.5 g and gradually raised to a resting tension of 1.0 g over 60 minutes. Rings were rinsed with Krebs Henseleit solution (heated to 37° C. and aerated with 95% 02 and 5% CO2) at 15 minute intervals until a stable baseline was obtained. Rings were considered to be stable after a resting tension of 1.0 g was maintained (for approximately 10 minutes) without need for adjustment. Rings were then contracted with 100 ng/mL phenylephrine by adding 100 μL of a 10 μg/mL phenylephrine stock solution. Tissues achieving a stable contraction were then treated in a cumulative, dose dependent manner with test compounds prepared in dimethylsulfoxide (DMSO). In some cases, tissues were rinsed three times over a 5 minute period with Krebs-Heinseleit's solution (heated to 37° C. and aerated with 95% 02 and 5% CO2), allowed to stabilize at baseline, and then used for characterization of other test articles or DMSO effects. All data were collected using the HSE-ACAD software provided by Harvard Apparatus. […] EC50 values were calculated from concentration-response curves generated with GraphPad Prism Software.
Biological Activity Measurement by the Thoracic Aortic Rings Assay
The biological data for some of a compound of Table I, in comparison with the known compound, BAY 41-2272, as the reference compound, determined by the thoracic aorta ring assay of Example 5 are presented in Table 6 below.

[1] = biological target: T1, soluble guanylate cyclase (sGC) (Homo sapiens, UniProt Q02108+Q02153); assay: sGC-HEK-cGMP assay (run with SNP incubation); assay type: cell-based; conditions: for Emax: 10 μM SNP, 100% = 30 μM BAY 41-2272 with 10 μM SNP, read-out: HEK assay Emax-unconstrained (Percent); for HEK MEC-10: concentration that would elicit 10% of the Emax in the presence of 10 μM SNP; for EC50: in the presence of 10 μM SNP
T1 construct: endogenously expressing soluble guanylate cyclase (sGC); endogenous in cells; host or cells: HEK293
T1 sequence (Q02153 1-619): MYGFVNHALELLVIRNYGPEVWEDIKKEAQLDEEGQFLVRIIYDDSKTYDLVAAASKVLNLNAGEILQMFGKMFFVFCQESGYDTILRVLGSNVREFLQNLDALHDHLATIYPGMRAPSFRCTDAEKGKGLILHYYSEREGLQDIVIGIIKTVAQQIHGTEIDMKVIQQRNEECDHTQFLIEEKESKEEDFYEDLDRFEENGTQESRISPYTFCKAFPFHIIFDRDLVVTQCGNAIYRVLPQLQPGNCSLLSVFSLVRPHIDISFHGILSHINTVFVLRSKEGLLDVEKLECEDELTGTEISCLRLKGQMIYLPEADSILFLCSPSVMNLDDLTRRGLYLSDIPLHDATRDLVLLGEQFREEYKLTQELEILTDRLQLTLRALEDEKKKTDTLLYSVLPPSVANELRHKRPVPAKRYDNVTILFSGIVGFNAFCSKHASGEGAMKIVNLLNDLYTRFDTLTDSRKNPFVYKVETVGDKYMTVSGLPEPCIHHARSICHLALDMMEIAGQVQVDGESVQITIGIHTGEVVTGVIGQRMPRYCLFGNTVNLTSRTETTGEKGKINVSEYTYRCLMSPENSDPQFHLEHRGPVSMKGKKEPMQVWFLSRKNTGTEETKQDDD
T1 sequence (Q02108 1-690): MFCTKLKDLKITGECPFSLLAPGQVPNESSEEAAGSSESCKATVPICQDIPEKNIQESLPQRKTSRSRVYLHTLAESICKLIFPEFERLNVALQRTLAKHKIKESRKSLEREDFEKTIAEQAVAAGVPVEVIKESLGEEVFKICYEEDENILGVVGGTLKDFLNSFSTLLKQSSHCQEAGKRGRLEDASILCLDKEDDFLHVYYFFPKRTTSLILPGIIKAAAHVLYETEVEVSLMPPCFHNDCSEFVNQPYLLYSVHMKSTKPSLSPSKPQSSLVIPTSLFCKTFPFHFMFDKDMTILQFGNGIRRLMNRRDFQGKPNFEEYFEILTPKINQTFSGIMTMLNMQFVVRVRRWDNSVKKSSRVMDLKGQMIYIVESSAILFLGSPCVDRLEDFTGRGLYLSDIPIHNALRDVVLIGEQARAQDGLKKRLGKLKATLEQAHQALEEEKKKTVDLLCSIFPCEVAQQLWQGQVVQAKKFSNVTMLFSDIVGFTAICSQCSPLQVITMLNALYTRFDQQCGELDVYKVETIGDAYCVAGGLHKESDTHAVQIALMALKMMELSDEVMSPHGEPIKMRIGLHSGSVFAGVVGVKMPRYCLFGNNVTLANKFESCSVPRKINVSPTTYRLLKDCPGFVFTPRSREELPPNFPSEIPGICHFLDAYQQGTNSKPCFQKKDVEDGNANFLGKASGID
Summary of the method: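 HEK293 cells with endogenous sGC were pre-treated 15 min at 37 °C with 0.5 mM IBMX, then exposed to test compound plus sodium nitroprusside for 10 min at 37 °C. Cells were lysed in 0.1 M HCl (4 °C, 30 min), and cGMP was quantified by LC/MS against a standard curve. EC50 values came from concentration-response curves.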

[2] = test system: lambs with acute pulmonary hypertension; conditions: cited from earlier work; for pulmonary vasodilation / effect on mean arterial pressure / systemic arterial oxygenation / transpulmonary cGMP release: inhaled microparticles, awake lambs, U-46619 infusion; for pulmonary vasodilation: mean pulmonary arterial pressure 35 mm Hg
[3] = biological target: T2, Human soluble guanylate cyclase enzyme (hsGC) (Homo sapiens, UniProt Q02108+Q02153); assay: Purified human sGC enzyme synergy assay in the presence of 1 μM sodium nitroprusside (SNP); assay type: biochemical; conditions: compound at 30 μM, presence of 1 μM SNP
T2 construct: purchased Enzo Inc. ALX-201-177
T2 sequence (Q02153 1-619): T1 sequence (Q02153 1-619)
T2 sequence (Q02108 1-690): T1 sequence (Q02108 1-690)
Summary of the method: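 Purified hsGC (5 ng) incubated 30 min at 37 °C with compound (10 or 30 μM final) in Tris pH 8.0, 300 μM GTP, 1 mM IBMX, 2 mM MgCl2, with or without 1 μM SNP; stopped with cold methanol. cGMP quantified against standard curve; specific activity expressed as fold-change over DMSO control.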

[4] = biological target: T2, Human soluble guanylate cyclase enzyme (hsGC); assay: Purified human sGC enzyme activity assay (without SNP); assay type: biochemical; conditions: compound at 30 μM, absence of SNP, fold over DMSO control
Summary of the method: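 Purified human sGC (5 ng) in 0.1 M Tris pH 8.0, 2 mM DTT, 2 mM MgCl2, 300 μM GTP, 1 mM IBMX, with compound at 10 or 30 μM final, 30 min at 37° C.; methanol-stopped. cGMP quantified against a standard curve; specific activity expressed as fold-change over DMSO control.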

[5] = Table 3A, top of concentration-response curve not fitted to 100%
[6] = Table 3D, read-out: HEK assay EC50
[7] = top of concentration-response curve not fitted to 100%, Table 3D, read-out: HEK assay EC50-unconstrained

EC50 (Thoracic aortic rings) [µM] | Emax [1, 5] [%] | HEK MEC-10 ([1]; Table 3D) | EC50 [1, 6] [µM] | EC50 [1, 7] [µM] | Structure (SMILES) | Aortic Ring Percent Relaxation at 1 μM (Thoracic aortic rings) | Aortic Ring Percent Relaxation at 3 μM (Thoracic aortic rings) | Aortic Ring Percent Relaxation at 10 μM (Thoracic aortic rings) | pulmonary vasodilation [2] | effect on mean arterial pressure [2] | transpulmonary cGMP release [2] | also measured
< 2 | 100 to 120 | B (0.01 to <0.1 μM) | < 20 | 0.01 to 0.5 | N#CC1(C(=O)Nc2cnc(-c3cc(-c4ncco4)n(Cc4ccccc4F)n3)nc2N)CC1 [Compound 47, N-(4-amino-2-(1-(2-fluorobenzyl)-5-(oxazol-2-yl)-1H-pyrazol-3-yl)pyrimidin-5-yl)-1-cyanocyclopropanecarboxamide] | E (60 or <80%) | F (80 to <100%) | G (100 to <120%) | – | – | – | –
< 2 | 100 to 120 | A (0.001 to <0.01 μM) | < 20 | 0.01 to 0.5 | CC1(C(=O)Nc2cnc(-c3cc(-c4ccon4)n(Cc4cccc(F)c4F)n3)nc2N)CC1 [Compound 10] | G (100 to <120%) | G (100 to <120%) | G (100 to <120%) | – | – | – | –
– | – | – | – | – | Nc1nc(-c2nn(Cc3ccccc3F)c3ncccc23)nc(N)c1N1CCOCC1 [BAY 41-8543] | – | – | – | dose dependent pulmonary vasodilation | without significant effect on mean arterial pressure | increased transpulmonary cGMP release | magnitude and duration of pulmonary vasodilation induced by iNO ([2]; after inhaling the microparticles, lambs): augmented; systemic arterial oxygenation [2]: increased systemic arterial oxygenation
– | – | – | – | – | Nc1nc(-c2nn(Cc3ccccc3F)c3ncccc23)ncc1C1CC1 [BAY 41-2272] | – | – | – | dose dependent pulmonary vasodilation | without significant effect on mean arterial pressure | increased transpulmonary cGMP release | –
< 2 | 60 to 80 | B (0.01 to <0.1 μM) | < 20 | 0.01 to 0.5 | Oc1nc(-c2cc(-c3ccon3)n(Cc3cccc(F)c3F)n2)ncc1F [Compound 1] | F (80 to <100%) | G (100 to <120%) | G (100 to <120%) | – | – | – | –
– | – | – | – | – | O=C(O)CCCCN(CCc1ccccc1OCc1ccc(CCc2ccccc2)cc1)Cc1ccc(C(=O)O)cc1 [BAY 58-2667] | – | – | – | dose dependent pulmonary vasodilation | without significant effect on mean arterial pressure | increased transpulmonary cGMP release | pulmonary vasodilation and transpulmonary cGMP release after treatment with ODQ ([2]; inhaled microparticles after intravenous ODQ, lambs): greatly enhanced; systemic arterial oxygenation [2]: increased systemic arterial oxygenation
– | 80 to 100 | D (1 to <10 μM) | < 20 | 5 to 10 | Oc1nc(-c2cc(-c3ccon3)n(Cc3ccccc3F)n2)ncc1-c1ncco1 [Compound 38] | – | – | – | – | – | – | Enzyme Activity (increase at 30 μM with SNP) ([3]; Table 5A): C (5 to <10 fold increase); Enzyme Activity (increase at 30 μM without SNP) ([4]; Table 5A): B (2 to <5 fold increase)
– | 40 to 60 | D (1 to <10 μM) | 40 to 60 | 5 to 10 | O=c1[nH]c(-c2cc(-c3ccon3)n(Cc3ccccc3F)n2)nc(Cl)c1Cl [Compound 54] | – | – | – | – | – | – | Enzyme Activity (increase at 30 μM with SNP) ([3]; Table 5A): C (5 to <10 fold increase); Enzyme Activity (increase at 30 μM without SNP) ([4]; Table 5A): A (no increase to <2 fold increase)
– | – | – | – | – | Fc1ccccc1Cn1nc(-c2ncc3cn[nH]c3n2)cc1-c1ccon1 [Compound 113] | – | – | – | – | – | – | Enzyme Activity (increase at 30 μM with SNP) ([3]; Table 5C): D (10 or <20 fold increase); Emax ([1]; Table 3C, top of concentration-response curve not fitted to 100%): 20 to 40%; HEK MEC-10 ([1]; Table 3F): C (0.1 to <1 μM); EC50 ([1]; Table 3F, read-out: HEK assay EC50): 20 to 40 µM; EC50 ([1]; top of concentration-response curve not fitted to 100%, Table 3F, read-out: HEK assay EC50-unconstrained): 0.01 to 0.5 µM; Enzyme Activity (increase at 30 μM without SNP) ([4]; Table 5C): C (5 to <10 fold increase)
